This is an account of results in PubChem BioAssay AID179 (DTP/NCI, 2004).

Calls of active or inactive are those of the source.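 The calls were made as follows: active = compounds giving half or more protection of infected cells from virus-caused growth loss, again on retest; inactive = the rest.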 Where only a bound is given, the exact number is not on record here.

As a reminder, the EC50 is the concentration needed to bring the measured effect to its halfway point. What is called IC50 is the concentration at which inhibition is half-maximal. Low readings indicate higher potency, high ones lower potency.

This assay concerns CEM cells HIV-1 protection, formazan growth assay. The experiment in a line: NCI AIDS Antiviral Assay. The following applies: for IC50: measured here: growth of uninfected CEM cells. The gist of the method: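 Protection of CEM cells against HIV-1 was scored from cell growth (soluble formazan) across five concentrations, with parallel uninfected cells. Lack of protection may reflect toxicity.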

For the molecule `Oc1cnc2c(O)cccc2c1`, the EC50 is above 200 µM and the IC50 was 17.8 µM.
As to `Cc1ccc(SC/C(=C\CS(=O)(=O)c2ccc(C)cc2)S(=O)(=O)c2ccc(Br)cc2)cc1`, the outcome was inactive.
Same read-out and setting: the entry for `O=C1C(c2ccc([N+](=O)[O-])cc2)=[N+]([O-])c2ccccc21` is “inactive”.
Consider `Cc1ccc(-c2csc(=Nc3ccccc3)n2NC(=O)c2ccncc2)cc1`, for which the EC50 is above 200 µM and the IC50 worked out at 22.9 µM.
The matching figures for `Nc1ccc(C2SCC(=O)N2NS(=O)(=O)c2cccc(C(=O)O)c2)cc1` (stereo unspecified): 36.3 µM and 132 µM.
The matching figures for `CCC(=O)NC(OCC1(CC)COC1)(C(F)(F)F)C(F)(F)F`: above 200 µM and above 200 µM.
The corresponding values for `O=C(Cn1cc(Br)c(=O)[nH]c1=O)c1ccc(-c2ccccc2)cc1` are above 200 µM and above 200 µM.
Take `Nc1ccc(S(=O)(=O)Nc2ccccc2)cc1`: the EC50 was above 200 µM and the IC50 is above 200 µM.
With `Cc1noc(NS(=O)(=O)c2ccc(Nc3nc(CC(=O)Nc4ccccc4)cs3)cc2)c1C`, the EC50 is above 200 µM and the IC50 was 28.2 µM.
The matching figures for `CC1=CC[C@@H]2C(=O)C=CC=C[C@H]12.[C-]#[O+].[C-]#[O+].[C-]#[O+].[Fe]`: above 316 µM and 178 µM.
The matching figures for `O=C(O)CCN1CCN(CCC(=O)O)CCN(CCC(=O)O)CC1`: above 200 µM and 18.2 µM.
As to `O=C1OC(C(=O)O)c2ccc3c(c21)OCO3` (stereo unspecified), the EC50 was above 398 µM and the IC50 was above 398 µM.
As for `Cn1c2c(c(=O)n(C)c1=O)C(C(=O)O)CC(=O)N2` (stereo unspecified), the EC50 was above 200 µM and the IC50 came out at 170 µM.
The corresponding values for `CCOC(=O)c1ccc(N2C(=O)c3cccc4cccc(c34)C2=O)cc1` are above 100 µM and above 100 µM.
In the case of `C=C[C@@]1(C)CC2(C=C(CO)C(O)O2)Oc2c1c(=O)oc1cccc(C)c21` (stereo partly specified), the EC50 is above 200 µM and the IC50 is 3.02 µM.
The matching figures for `Cc1nc(-c2cc3cc([N+](=O)[O-])ccc3oc2=O)cs1`: above 200 µM and 74.1 µM.
The matching figures for `C/C(=N/Nc1ccc([N+](=O)[O-])cc1[N+](=O)[O-])C(CC(C(=O)Nc1ccccc1C)/C(C)=N\Nc1ccc([N+](=O)[O-])cc1[N+](=O)[O-])C(=O)Nc1ccccc1C` (stereo unspecified): above 9.55 µM and above 9.55 µM.
The matching figures for `CC1(c2ccc(Cl)cc2)c2ccccc2C(=O)N1CCCN1C(=O)c2ccccc2C1=O` (stereo unspecified): above 200 µM and 195 µM.
Turning to `CC(C)(C)C1COP(=O)(C(C)(C)C)OC1` (stereo unspecified), the EC50 was above 537 µM and the IC50 is 468 µM.
`Cc1ccccc1NC(=O)Cc1csc(N=Nc2c(O)[nH]c3ccccc23)n1`: the EC50 was above 200 µM and the IC50 was above 200 µM.
In the case of `CCC(C)C1(O)OC2CC3(C)OC(=CC3=O)/C(C)=C\C3OC(=O)C1(C)C32` (stereo unspecified), the EC50 is above 138 µM and the IC50 is 7.59 µM.
The corresponding values for `CCCCNC(=O)C1C2C=CC(O2)C1C(=O)O` (stereo unspecified) are above 200 µM and above 200 µM.
The corresponding values for `Cc1ccc(OCC2OC(n3cnc4c(Cl)nc(N)nc43)CC2Oc2ccc(C)cc2)cc1` (stereo unspecified) are above 200 µM and 66.1 µM.
The matching figures for `NC1=NN(c2ccccc2)C(=O)C1C(=O)C(=O)Nc1ccc(Cl)c(Cl)c1` (stereo unspecified): above 331 µM and 234 µM.
`CC(=O)N1CC(C)(C)c2c(C)c(O)c(C)c(C)c21`: the EC50 is above 200 µM and the IC50 was 178 µM.
The corresponding values for `COc1ccc2c(c1)OC(OC)(c1ccccc1)C(O)(OC)C2=O` (stereo unspecified) are above 200 µM and 15.1 µM.
The corresponding values for `Clc1ccc(C2ON=C(c3ccccc3)N2C23CC4CC(CC(C4)C2)C3)c(Cl)c1` (stereo unspecified) are above 200 µM and above 200 µM.
With `CSc1nnc(CF)c(=O)[nH]1`, the EC50 is above 200 µM and the IC50 was above 200 µM.
For `CCCCCCCCCCNP(=S)(NCCCCCCCCCC)c1ccccc1`, the outcome was inactive.
On the same count and under the same terms, the value for `CC1(C)N=C(N)N=C(N)N1c1cccc(N)c1.[Sn]` was “inactive”.
Consider `O=[N+]([O-])c1ccc(Cl)cc1-n1nc(-c2ccccc2)cc1-c1ccccc1`, for which the EC50 is above 200 µM and the IC50 is above 200 µM.
Take `CC(C)C1CC=CCC12C(=O)NC(=O)NC2=O` (stereo unspecified): the EC50 was above 1050 µM and the IC50 turned out to be 955 µM.
Regarding `CSC1(C)CC2C(CC1N1CCCCC1)C2(C)C` (stereo unspecified), the EC50 was above 93.3 µM and the IC50 is 44.7 µM.
`NS(=O)(=O)c1ccc(NNC(=O)c2cccc3c(=O)c4ccccc4[nH]c23)cc1`: the EC50 was above 200 µM and the half-inhibitory concentration (IC50) was determined as 58.9 µM.
For `COc1ccc(OC)c(-c2cc(=O)c3c(OC)c(OC)c(OC)c(OC)c3o2)c1`, the EC50 is above 200 µM and the IC50 was found to be 29.5 µM.
For `COc1ccc(/C=C2/N=C(N/N=C\C(O)C(O)C(O)CO)NC2=O)cc1` (stereo unspecified), the EC50 is above 200 µM, the outcome was inactive and the IC50 stood at 79.4 µM.
For the molecule `N=C(N)c1ncn(C2OC(CO)C(O)C2O)n1` (stereo unspecified), the outcome was inactive.
`CN(C)CCCSCCOc1nccc(-c2ccc(-c3ccc(-c4ccnc(OCCSCCCN(C)C)n4)s3)s2)n1`: the concentration for a half-maximal effect (EC50) came out at 1.1 µM and the IC50 is 2.75 µM.
The corresponding values for `COC(=O)/C(=C(/C)c1ccco1)P(=O)(OC)OC` are above 200 µM and above 200 µM.
The matching figures for `O=Nc1c(O)[nH]c(=S)[nH]c1=O`: above 148 µM and 115 µM.
The corresponding values for `CC(C)c1cc[n+](/C(C(=S)Nc2cccc(Cl)c2)=C(/[O-])c2ccc([N+](=O)[O-])cc2)cc1` are above 200 µM and 69.2 µM.
As to `CCOP(C)(=O)C(Nc1ccc(F)cc1)c1ccc(F)cc1` (stereo unspecified), the EC50 was above 200 µM and the IC50 is 166 µM.
The corresponding values for `O=S(=O)(O)c1ccc(OCCCCCCCCCCOc2ccc(S(=O)(=O)O)cc2)cc1` are above 25.7 µM and above 25.7 µM.
The corresponding values for `COc1cc(NCCN=C(N)NC#N)c2ncccc2c1` are above 126 µM and 89.1 µM.
Turning to `CN1CCC23CCCC[C@H]2C1CC1=C3CC(=O)CC1` (stereo partly specified), the EC50 is above 692 µM and the IC50 stood at 263 µM.
The corresponding values for `Cc1cc2oc(=O)[nH]c(=S)c2c(C)c1C` are above 17 µM and above 17 µM.
The corresponding values for `COc1cc2c(cc1O)[C@H]1COc3ccccc3[C@H]1O2` are above 93.3 µM and 4.9 µM.
As for `Cc1cccc(N2C(=O)C=C(NC(CC(C)C)c3nc4ccccc4[nH]3)C2c2ccccc2)c1` (stereo unspecified), the EC50 was above 200 µM and the IC50 stood at 17 µM.
The matching figures for `N#Cc1c(CC(=O)O)cc(=O)n2c1[nH]c1ccccc12`: above 933 µM and 316 µM.
The matching figures for `[N-]=[N+]=Nc1c(Cc2ccccc2)c(=O)oc2ccccc12`: above 200 µM and 32.4 µM.
For the molecule `COc1cc(NS(=O)(=O)c2ccc(C(C)=O)cc2)nc(OC)n1`, the EC50 is above 200 µM and the IC50 was above 200 µM.
Take `Nc1c(C(=O)O)c2nc3c(CO)cccc3oc-2cc1=O`: the EC50 is above 200 µM and the IC50 turned out to be 2.14 µM.
For the molecule `Cc1nc(NCCNCCO)nc2c1C(=O)Nc1ccccc1N2`, the EC50 was above 200 µM and the IC50 is 32.4 µM.
As for `COc1ccc(C(c2ccc(C(C)C)cc(=O)c2O)c2c(O)cc3oc(-c4ccccc4)cc(=O)c3c2O)cc1` (stereo unspecified), the outcome was inactive.
As to `CCc1cc2c(cc1C(=O)CCC(=O)O)CC1(C2)Cc2cc(CC)c(C(=O)CCC(=O)O)cc2C1`, the EC50 is above 200 µM and the IC50 is 107 µM.
As for `CN1N=C(c2ccncc2)OC1c1ccc(C(F)(F)F)cc1` (stereo unspecified), the EC50 was above 200 µM and the IC50 is 132 µM.
As to `COc1ccc(NC(C)=O)cc1N1C(=O)/C(=C\c2cc(OC)c(OC)c(OC)c2)SC1c1ccccc1` (stereo unspecified), the outcome was inactive.
On to `CN1C=C(C(N)=O)C2CC(O)[C@@](NC(=O)CS(N)(=O)=O)(C(=O)O)C2C1` (stereo partly specified), for which the EC50 was above 166 µM and the IC50 was determined as 3.72 µM.
For `O=C(O)c1cc(N=Nc2ccc(N=Nc3ccc(S(=O)(=O)O)cc3)cc2)ccc1O`, the result was inactive.
Regarding `C=CCC(C)(O)CCC(O)(CC=C)CC=C` (stereo unspecified), the EC50 was above 200 µM and the IC50 was above 200 µM.
`O=C([O][Bi]([c]1ccccc1)[c]1ccccc1)c1ccccc1`: the EC50 is above 38.9 µM and the IC50 was above 38.9 µM.
With `O=C(O)C1(Cc2ccc3c(c2)CCC3)Cc2cc3c(cc2C1)CCC3`, the EC50 is above 200 µM and the IC50 turned out to be 35.5 µM.
The matching figures for `COc1ccc(/C=N/NS(=O)(=O)c2ccc(/C=C3\NC(=O)N(C)C3=O)cc2)cc1`: above 200 µM and above 200 µM.
Take `Cc1nc(N(CCO)CCO)c2sc(=S)n(-c3ccccc3)c2n1`: the EC50 was above 10.5 µM and the IC50 is above 10.5 µM.
Consider `O=c1c(-c2nn[nH]n2)cnc2sc3cc(Cl)ccc3n12`, for which the EC50 is above 200 µM and the IC50 came to 89.1 µM.
The matching figures for `CC(C)(C)C1=NO[C@H]2[C@@H](NC(=O)c3ccccc3)CC[C@@H]12`: above 871 µM and 302 µM.
As to `COC1C(O)C(n2ccc(=O)[nH]c2=O)OC1[C@@H](O[C@H]1OC(C(=O)NC2CCCCNC2=O)=CC(O)C1O)C(N)=O` (stereo partly specified), the result was inactive.
Regarding `CCOC(=O)C12C(C(=O)O)=C(N)CN1CCc1c2[nH]c2ccccc12` (stereo unspecified), the EC50 was above 58.9 µM and the IC50 was above 58.9 µM.
With `O=C1/C(=C/c2cccc(F)c2)Cc2ccccc21`, the EC50 is above 30.2 µM and the IC50 is above 30.2 µM.
With `COc1cc(/C=N/c2nncs2)ccc1O`, the EC50 is above 79.4 µM and the IC50 was above 79.4 µM.
As to `NS(=O)(=O)c1nnc(NC(=O)c2ccccc2)s1`, the EC50 is above 200 µM and the IC50 was above 200 µM.
Turning to `CC(C)c1cccc(C(C)C)c1NC(=S)N=Nc1cc(C(C)(C)C)c(O)c(C(C)(C)C)c1`, the EC50 is above 5.75 µM and the IC50 was above 5.75 µM.
